Experimental data from patent US5218114A, “Cholecystokinin antagonists” (Merck & Co., Inc., priority 1992, dated 1993).
Where two headings read alike, the source gives them in different places. Square brackets hold non-standard residues; d marks the D form. Peptide text beside a SMILES is read from it. * marks the point of attachment. sY = N[C@@H](Cc1ccc(OS(=O)(=O)O)cc1)C(=O)O; Cbz = O=C(OCc1ccccc1)*

Key:
CCK receptor (pancreas) = molecular target: T1, CCK receptor (pancreas) (Rattus norvegicus, UniProt P30551); experiment: CCK Receptor Binding (Pancreas); set-up: species or system rat (male Sprague-Dawley)
T1 construct: The whole pancreas was dissected free of fat tissue and was homogenized; from tissue; host or cells: rat whole pancreas, homogenate membranes
T1 sequence (P30551 1-444): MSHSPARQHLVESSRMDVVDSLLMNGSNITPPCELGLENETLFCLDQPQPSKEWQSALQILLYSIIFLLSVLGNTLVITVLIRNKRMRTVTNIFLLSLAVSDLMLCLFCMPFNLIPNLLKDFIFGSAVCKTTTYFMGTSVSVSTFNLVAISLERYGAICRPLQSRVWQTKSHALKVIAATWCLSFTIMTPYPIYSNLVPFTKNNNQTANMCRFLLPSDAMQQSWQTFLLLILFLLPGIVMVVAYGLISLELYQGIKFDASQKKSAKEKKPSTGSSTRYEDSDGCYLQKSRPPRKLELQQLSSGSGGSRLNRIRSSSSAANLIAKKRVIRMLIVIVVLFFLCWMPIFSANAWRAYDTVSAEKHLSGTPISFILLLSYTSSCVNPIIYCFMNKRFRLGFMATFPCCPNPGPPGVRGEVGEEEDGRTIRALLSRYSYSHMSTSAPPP
Protocol: 1. CCK Receptor Binding (Pancreas)
CCK-8 sulphated was radiolabelled with ^125 I-Bolton Hunter reagent (2000 Ci/mmole). Receptor binding was performed according to Chang and Lotti (Proc. Natl. Acad. Sci. 83, 4923-4926, 1986) with minor modifications.
Male Sprague-Dawley rats (150-200 g) were sacrificed by decapitation. The whole pancreas was dissected free of fat tissue and was homogenized in 25 volumes of ice-cold 10 mM Hepes buffer with 0.1% soya bean trypsin inhibitor (pH 7.4 at 25° C.) with a Kinematica Polytron. The homogenates were centrifuged at 47,800 g for 10 min. Pellets were resuspended in 10 volumes of binding assay buffer (20 mM Hepes, 1 mM EGTA, 5 mM MgCl2, 150 mM NaCl, bacitracin 0.25 mg/ml, soya bean trypsin inhibitor 0.1 mg/ml, and bovine serum albumin 2 mg/ml, pH 6.5 at 25° C.) using a teflon homogenizer, 15 strokes at 500 rpm. The homogenate was further diluted in binding assay buffer to give a final concentration of 0.5 mg original wet weight/1 ml buffer. […] All assays were run in duplicate. The reaction mixtures were incubated at 25° C. for 2 hours and the reaction terminated by rapid filtration (Brandell 24 well cell harvester) over Whatman GF/C filters, washing 3×4 mls with ice-cold 100 mM NaCl. The radioactivity on the filters was counted with a LKB gamma counter.
(§1) Drug displacement studies were performed with at least 10 concentrations of compounds of formula 1 and the IC50 values were determined by regression analysis.

[1] = molecular target: T2, CCK receptor (brain, cortex) (Cavia porcellus, UniProt H0VZC5); experiment: CCK Receptor Binding (Brain); set-up: species or system guinea pig (male Hartley)
T2 construct: the cortex was removed and homogenized in 25 mL ice-cold 0.32M sucrose; from tissue; host or cells: guinea pig brain cortex, P2 membranes
T2 sequence (H0VZC5 1-426): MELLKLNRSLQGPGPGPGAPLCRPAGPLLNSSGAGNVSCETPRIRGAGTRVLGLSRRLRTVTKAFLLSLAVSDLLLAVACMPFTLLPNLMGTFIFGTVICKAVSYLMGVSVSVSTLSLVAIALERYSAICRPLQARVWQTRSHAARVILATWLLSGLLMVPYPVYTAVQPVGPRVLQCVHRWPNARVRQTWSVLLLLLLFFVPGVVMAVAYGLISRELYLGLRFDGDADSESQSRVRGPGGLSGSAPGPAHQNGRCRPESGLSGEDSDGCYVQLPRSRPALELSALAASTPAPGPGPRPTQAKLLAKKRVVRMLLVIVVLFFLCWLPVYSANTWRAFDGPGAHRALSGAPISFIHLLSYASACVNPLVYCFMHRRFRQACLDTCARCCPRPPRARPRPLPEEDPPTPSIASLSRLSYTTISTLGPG
Protocol: 2. CCK Receptor Binding (Brain)
CCK-8 sulphated was radiolabelled and the binding was performed according to the description for the pancreas method with minor modifications.
Male Hartley guinea pigs (300-500 g) were sacrificed by decapitation and the cortex was removed and homogenized in 25 mL ice-cold 0.32M sucrose. The homogenates were centrifuged at 1000 g for 10 minutes and the resulting supernatant was recentrifuged at 20,000 g for 20 minutes. […] All assays were run in duplicate. The reaction mixtures were incubated at 25° C. for 2 hours and then the reaction was terminated on Whatman GF/C filters by rapid filtration (Brandell 24 well cell Harvester) with 3×5 ml washes of cold 100 mM NaCl. The radioactivity on the filters was then counted with a LKB gamma counter.
as §1

CCK-B receptors = details: Bock et al., J. Med. Chem., 32, 13-16 (1989); cited from earlier work
gastrin = details: J. Martinez, J. Med. Chem. 27, 1597 (1984); cited from earlier work
CCK receptor = details: literature; cited from earlier work
[2] = 125I-CCK-8 50 pM, rat pancreas, 25° C., 2 hours, read-out: CCK RECEPTOR BINDING RESULTS IC50, 125I-CCK Pancreas
[3] = 125I-CCK-8 50 pM, guinea pig cortex, 25° C., 2 hours, read-out: CCK RECEPTOR BINDING RESULTS IC50, 125I-CCK Brain

## O=C(Nc1ccc(Cl)cc1)NC1N=C(c2ccccc2)c2ccccc2N(CC(O)CO)C1=O (centres unmarked) [Example 5, N-{1,3-Dihydro-1-[2,3-(dihydroxy)propyl]-2-oxo-5-phenyl-1H-1,4-benzodiazepin-3-yl}-N'-{[4-chlorophenyl]-urea}]
CCK receptor (pancreas); [2]
  IC50: > 3 µM
[1]
  IC50: 118 nM

## O=C(Nc1ccc(Cl)cc1)NC1N=C(c2ccccc2)c2ccccc2N(Cc2nnn[nH]2)C1=O (centres unmarked) [Example 1, N-{1,3-Dihydro-1-[1H-tetrazol-5yl]methyl-2-oxo-5-phenyl-1H-1,4-benzodiazepin-3-yl}-N'-{[4-chlorophenyl]-urea}]
CCK receptor (pancreas)
  IC50: 2.13 µM
[1]; [3]
  IC50: 494 nM

## O=C(Nc1ccc(Cl)cc1)NC1N=C(c2ccccc2)c2ccccc2N(CC(Cl)CO)C1=O (centres unmarked) [Example 4, N-{1,3-Dihydro-1-[3-((hydroxy)-2-chloro)propyl]-2-oxo-5-phenyl-1H-1,4-benzodiazepin-3-yl}-N'-{[4-chlorophenyl]-urea}]
CCK receptor (pancreas); [2]
  IC50: > 3 µM
[1]; [3]
  IC50: 62 nM

## Cc1cccc(NC(=O)N[C@@H]2N=C(c3ccccc3)c3ccccc3N(C)C2=O)c1 [(R)-N-(2,3-dihydro-1-methyl-2-oxo-5-phenyl-1H-1,4-benzodiazepin-3-yl)-N^1-(3-methylphenyl) urea]
CCK-B receptors
  antagonist of CCK-B receptors: potent and selective antagonist of CCK-B receptors

## O=C(Nc1ccc(Cl)cc1)NC1N=C(c2ccccc2)c2ccccc2N(CC(O)CN2CCCC2)C1=O (centres unmarked) [Example 2, N-{1,3-Dihydro-1-[3-((pyrrolidinyl)-2-hydroxy)propyl]-2-oxo-5-phenyl-1H-1,4-benzodiazepin-3-yl}-N'-{[4-chlorophenyl]-urea}]
CCK receptor (pancreas)
  IC50: > 3 µM
[1]; [3]
  IC50: 300 nM

## CCCN(CCC)C(=O)C(CCC(=O)O)NC(=O)c1ccccc1 (centres unmarked) [proglumide]
gastrin
  in vitro gastrin antagonism: very weak in vitro antagonists

## CCCC(=O)Nc1nc2c(ncn2[C@@H]2O[C@@H]3COP(=O)(O)O[C@H]3[C@H]2OC(=O)CCC)c(=O)[nH]1 [dibutyryl cyclic GMP]
CCK receptor
  CCK-receptor antagonist potency / agonism: the most potent

## CSCC[C@H](NC(=O)[C@H](Cc1ccc(OS(=O)(=O)O)cc1)NC(=O)OCc1ccccc1)C(=O)NCC(=O)N[C@@H](Cc1c[nH]c2ccccc12)C(=O)N[C@@H](CCSC)C(=O)N[C@@H](CC(=O)O)C(N)=O [Cbz--Tyr(SO3 H)--Met--Gly--Trp--Met--Asp--NH2] (Cbz-[sY]MGWMD-NH2)
CCK receptor
  CCK-receptor antagonist potency / agonism: partial agonist

## CN(C)CC(O)CN1C(=O)C(NC(=O)Nc2ccc(Cl)cc2)N=C(c2ccccc2)c2ccccc21 (centres unmarked) [Example 3, N-{1,3-Dihydro-1-[3-((dimethylamino)-2-hydroxy)propyl]-2-oxo-5-phenyl-1H-1,4-benzodiazepin-3-yl}-N'-{[4-chlorophenyl]-urea}]
CCK receptor (pancreas)
  IC50: > 3 µM
[1]; [3]
  IC50: 430 nM
